Reference: PMC12136031 (Science Advances, 2025)
Where two headings read alike, the source gives them in different places.

Experiments:
AChE = target: T1, AChE (Homo sapiens, UniProt P22303); assay: Safety47 Enzymatic AChE; format: biochemical; settings: Inhibitor; for Emax: read-out: Max Response; for IC50: read-out: RC50 (IC50)
T1 construct: purchased Eurofins Panlab (Safety47 Safety Scan, contract panel)

CCKAR = target: T2, CCKAR (Homo sapiens, UniProt P32238); assay: Safety47 Calcium Flux CCKAR; format: cell-based; settings: for Emax: read-out: Max Response; for EC50: read-out: RC50 (EC50); for IC50: read-out: RC50 (IC50)
T2 construct: purchased Eurofins Panlab Safety47 Safety Scan
T2 sequence (P32238 1-428): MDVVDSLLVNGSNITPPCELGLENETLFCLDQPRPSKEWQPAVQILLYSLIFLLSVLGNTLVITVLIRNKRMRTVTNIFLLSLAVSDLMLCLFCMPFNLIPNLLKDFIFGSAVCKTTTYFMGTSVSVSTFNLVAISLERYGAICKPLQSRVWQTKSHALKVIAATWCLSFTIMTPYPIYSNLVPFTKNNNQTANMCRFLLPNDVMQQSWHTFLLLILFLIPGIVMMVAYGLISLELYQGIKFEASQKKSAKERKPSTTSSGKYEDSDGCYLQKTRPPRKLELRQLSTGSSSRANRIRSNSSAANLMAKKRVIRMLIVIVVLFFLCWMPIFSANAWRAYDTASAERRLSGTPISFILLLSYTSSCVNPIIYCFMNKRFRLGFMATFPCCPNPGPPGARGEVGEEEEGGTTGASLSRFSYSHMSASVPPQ

CNR2 = target: T3, CNR2 (Homo sapiens, UniProt P34972); assay: Safety47 cAMP CNR2; format: cell-based; settings: for Emax: read-out: Max Response; for EC50: read-out: RC50 (EC50); for IC50: read-out: RC50 (IC50)
T3 construct: purchased Eurofins Panlab Safety47 Safety Scan

ADRB1 = target: T4, ADRB1 (Homo sapiens, UniProt P08588); assay: Safety47 cAMP ADRB1; format: cell-based; settings: for Emax: read-out: Max Response; for EC50: read-out: RC50 (EC50); for IC50: read-out: RC50 (IC50)
T4 construct: purchased Eurofins Panlab Safety47 Safety Scan

HTR1A = target: T5, HTR1A (Homo sapiens, UniProt P08908); assay: Safety47 cAMP HTR1A; format: cell-based; settings: for Emax: read-out: Max Response; for EC50: read-out: RC50 (EC50); for IC50: read-out: RC50 (IC50)
T5 construct: purchased Eurofins Panlab Safety47 Safety Scan
T5 sequence (P08908 1-422): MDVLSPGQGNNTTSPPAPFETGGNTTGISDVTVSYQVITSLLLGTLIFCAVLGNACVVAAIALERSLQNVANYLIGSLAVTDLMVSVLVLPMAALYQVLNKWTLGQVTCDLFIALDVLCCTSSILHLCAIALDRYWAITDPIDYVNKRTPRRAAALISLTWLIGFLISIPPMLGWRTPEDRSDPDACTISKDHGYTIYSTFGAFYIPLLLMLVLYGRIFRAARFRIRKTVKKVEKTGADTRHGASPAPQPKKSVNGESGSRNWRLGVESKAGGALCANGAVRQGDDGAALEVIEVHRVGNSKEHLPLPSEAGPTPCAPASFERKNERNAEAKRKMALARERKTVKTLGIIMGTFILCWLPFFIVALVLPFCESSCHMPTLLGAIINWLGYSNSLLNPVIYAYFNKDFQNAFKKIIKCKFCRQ

MAOA = target: T6, MAOA (Homo sapiens, UniProt P21397); assay: Safety47 Enzymatic MAOA; format: biochemical; settings: Inhibitor; for Emax: read-out: Max Response; for IC50: read-out: RC50 (IC50)
T6 construct: purchased Eurofins Panlab (Safety47 Safety Scan, contract panel)
T6 sequence (P21397 1-527): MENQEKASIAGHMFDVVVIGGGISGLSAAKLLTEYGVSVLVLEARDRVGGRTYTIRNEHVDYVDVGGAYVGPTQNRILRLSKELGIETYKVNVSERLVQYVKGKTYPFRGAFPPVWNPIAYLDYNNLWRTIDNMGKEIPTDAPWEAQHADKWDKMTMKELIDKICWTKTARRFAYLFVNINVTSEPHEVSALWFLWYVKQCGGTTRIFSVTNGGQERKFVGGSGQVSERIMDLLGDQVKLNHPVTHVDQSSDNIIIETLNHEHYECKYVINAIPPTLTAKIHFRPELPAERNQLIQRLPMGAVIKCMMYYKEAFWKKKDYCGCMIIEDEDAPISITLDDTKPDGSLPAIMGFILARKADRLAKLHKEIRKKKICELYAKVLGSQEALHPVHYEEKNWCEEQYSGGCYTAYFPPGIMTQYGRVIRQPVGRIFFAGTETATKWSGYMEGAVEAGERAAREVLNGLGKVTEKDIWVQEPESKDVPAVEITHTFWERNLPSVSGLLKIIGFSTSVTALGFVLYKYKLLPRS

TFEB ubiquitination = assay: TFEB cellular ubiquitination assay; format: cell-based, human; settings: TFEB-EGFP immunoprecipitated
LCK = target: T7, LCK (Homo sapiens, UniProt P06239); assay: Safety47 Kinase Binding LCK; settings: Kinases, Inhibitor; for Emax: read-out: Max Response; for IC50: read-out: RC50 (IC50)
T7 construct: purchased Eurofins Panlab (Safety47 Safety Scan, contract panel)

SERT = target: T8, SERT (Homo sapiens, UniProt P31645); assay: Safety47 Transporter SERT; format: cell-based; settings: Blocker; for Emax: read-out: Max Response; for IC50: read-out: RC50 (IC50)
T8 construct: purchased Eurofins Panlab Safety47 Safety Scan

AVPR1A = target: T9, AVPR1A (Homo sapiens, UniProt P37288); assay: Safety47 Calcium Flux AVPR1A; format: cell-based; settings: for Emax: read-out: Max Response; for EC50: read-out: RC50 (EC50); for IC50: read-out: RC50 (IC50)
T9 construct: purchased Eurofins Panlab Safety47 Safety Scan

NMDAR (1A/2B) = target: T10, NMDAR (1A/2B) (Homo sapiens, UniProt Q05586+Q13224); assay: Safety47 Ion Channel NMDAR (1A/2B); format: cell-based; settings: for Emax: read-out: Max Response; for IC50: read-out: RC50 (IC50); for EC50: read-out: RC50 (EC50)
T10 construct: purchased Eurofins Panlab (Safety47 Safety Scan, contract panel)

HTR3A = target: T11, HTR3A (Homo sapiens, UniProt P46098); assay: Safety47 Ion Channel HTR3A; format: cell-based; settings: for Emax: read-out: Max Response; for IC50: read-out: RC50 (IC50); for EC50: read-out: RC50 (EC50)
T11 construct: purchased Eurofins Panlab (Safety47 Safety Scan, contract panel)
T11 sequence (P46098 24-478): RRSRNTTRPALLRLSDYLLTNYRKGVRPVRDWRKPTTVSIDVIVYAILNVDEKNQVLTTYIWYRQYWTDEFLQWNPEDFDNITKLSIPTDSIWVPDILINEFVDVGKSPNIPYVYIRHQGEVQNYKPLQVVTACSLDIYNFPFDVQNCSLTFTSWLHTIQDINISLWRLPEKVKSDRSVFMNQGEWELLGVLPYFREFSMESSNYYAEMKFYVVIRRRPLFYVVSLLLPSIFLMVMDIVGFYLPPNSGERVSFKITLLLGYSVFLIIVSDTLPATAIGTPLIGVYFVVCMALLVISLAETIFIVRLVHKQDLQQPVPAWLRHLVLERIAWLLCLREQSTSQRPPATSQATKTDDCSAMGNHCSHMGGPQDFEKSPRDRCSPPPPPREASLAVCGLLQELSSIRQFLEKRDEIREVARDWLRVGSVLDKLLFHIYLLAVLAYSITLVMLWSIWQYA

T4 sequence (P08588 whole entry): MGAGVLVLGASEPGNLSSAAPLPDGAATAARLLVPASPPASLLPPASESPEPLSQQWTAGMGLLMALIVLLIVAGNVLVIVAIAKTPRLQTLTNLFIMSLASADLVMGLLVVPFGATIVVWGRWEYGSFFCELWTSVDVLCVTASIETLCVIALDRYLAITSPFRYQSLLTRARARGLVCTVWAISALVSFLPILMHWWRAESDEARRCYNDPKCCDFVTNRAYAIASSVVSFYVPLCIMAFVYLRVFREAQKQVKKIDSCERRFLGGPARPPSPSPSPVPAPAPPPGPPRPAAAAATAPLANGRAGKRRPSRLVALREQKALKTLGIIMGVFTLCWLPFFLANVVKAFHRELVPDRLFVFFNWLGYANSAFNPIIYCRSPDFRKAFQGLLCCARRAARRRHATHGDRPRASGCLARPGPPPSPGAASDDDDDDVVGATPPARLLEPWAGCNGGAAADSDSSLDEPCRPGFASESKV
T9 sequence (P37288 whole entry): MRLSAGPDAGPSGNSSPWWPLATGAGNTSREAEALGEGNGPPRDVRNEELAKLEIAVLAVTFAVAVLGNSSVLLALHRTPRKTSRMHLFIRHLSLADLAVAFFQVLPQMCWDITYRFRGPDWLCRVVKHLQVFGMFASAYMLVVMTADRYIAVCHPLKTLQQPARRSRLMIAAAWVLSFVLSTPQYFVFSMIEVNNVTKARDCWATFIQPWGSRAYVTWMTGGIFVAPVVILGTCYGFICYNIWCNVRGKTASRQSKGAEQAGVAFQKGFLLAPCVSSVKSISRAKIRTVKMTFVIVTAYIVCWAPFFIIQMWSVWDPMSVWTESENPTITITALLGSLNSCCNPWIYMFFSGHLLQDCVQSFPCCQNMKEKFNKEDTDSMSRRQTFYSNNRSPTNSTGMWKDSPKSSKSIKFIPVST
T3 sequence (P34972 whole entry): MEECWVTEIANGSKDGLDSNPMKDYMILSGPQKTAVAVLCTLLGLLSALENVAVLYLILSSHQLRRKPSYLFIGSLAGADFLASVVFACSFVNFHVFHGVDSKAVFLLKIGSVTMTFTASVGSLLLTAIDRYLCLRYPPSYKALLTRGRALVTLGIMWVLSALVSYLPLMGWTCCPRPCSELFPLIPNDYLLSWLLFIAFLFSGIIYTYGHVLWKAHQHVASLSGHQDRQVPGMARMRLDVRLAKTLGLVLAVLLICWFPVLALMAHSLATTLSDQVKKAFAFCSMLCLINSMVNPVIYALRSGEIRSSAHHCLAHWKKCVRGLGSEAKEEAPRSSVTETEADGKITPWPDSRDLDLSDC
T10 sequence (Q13224 27-1484, other chains not shown): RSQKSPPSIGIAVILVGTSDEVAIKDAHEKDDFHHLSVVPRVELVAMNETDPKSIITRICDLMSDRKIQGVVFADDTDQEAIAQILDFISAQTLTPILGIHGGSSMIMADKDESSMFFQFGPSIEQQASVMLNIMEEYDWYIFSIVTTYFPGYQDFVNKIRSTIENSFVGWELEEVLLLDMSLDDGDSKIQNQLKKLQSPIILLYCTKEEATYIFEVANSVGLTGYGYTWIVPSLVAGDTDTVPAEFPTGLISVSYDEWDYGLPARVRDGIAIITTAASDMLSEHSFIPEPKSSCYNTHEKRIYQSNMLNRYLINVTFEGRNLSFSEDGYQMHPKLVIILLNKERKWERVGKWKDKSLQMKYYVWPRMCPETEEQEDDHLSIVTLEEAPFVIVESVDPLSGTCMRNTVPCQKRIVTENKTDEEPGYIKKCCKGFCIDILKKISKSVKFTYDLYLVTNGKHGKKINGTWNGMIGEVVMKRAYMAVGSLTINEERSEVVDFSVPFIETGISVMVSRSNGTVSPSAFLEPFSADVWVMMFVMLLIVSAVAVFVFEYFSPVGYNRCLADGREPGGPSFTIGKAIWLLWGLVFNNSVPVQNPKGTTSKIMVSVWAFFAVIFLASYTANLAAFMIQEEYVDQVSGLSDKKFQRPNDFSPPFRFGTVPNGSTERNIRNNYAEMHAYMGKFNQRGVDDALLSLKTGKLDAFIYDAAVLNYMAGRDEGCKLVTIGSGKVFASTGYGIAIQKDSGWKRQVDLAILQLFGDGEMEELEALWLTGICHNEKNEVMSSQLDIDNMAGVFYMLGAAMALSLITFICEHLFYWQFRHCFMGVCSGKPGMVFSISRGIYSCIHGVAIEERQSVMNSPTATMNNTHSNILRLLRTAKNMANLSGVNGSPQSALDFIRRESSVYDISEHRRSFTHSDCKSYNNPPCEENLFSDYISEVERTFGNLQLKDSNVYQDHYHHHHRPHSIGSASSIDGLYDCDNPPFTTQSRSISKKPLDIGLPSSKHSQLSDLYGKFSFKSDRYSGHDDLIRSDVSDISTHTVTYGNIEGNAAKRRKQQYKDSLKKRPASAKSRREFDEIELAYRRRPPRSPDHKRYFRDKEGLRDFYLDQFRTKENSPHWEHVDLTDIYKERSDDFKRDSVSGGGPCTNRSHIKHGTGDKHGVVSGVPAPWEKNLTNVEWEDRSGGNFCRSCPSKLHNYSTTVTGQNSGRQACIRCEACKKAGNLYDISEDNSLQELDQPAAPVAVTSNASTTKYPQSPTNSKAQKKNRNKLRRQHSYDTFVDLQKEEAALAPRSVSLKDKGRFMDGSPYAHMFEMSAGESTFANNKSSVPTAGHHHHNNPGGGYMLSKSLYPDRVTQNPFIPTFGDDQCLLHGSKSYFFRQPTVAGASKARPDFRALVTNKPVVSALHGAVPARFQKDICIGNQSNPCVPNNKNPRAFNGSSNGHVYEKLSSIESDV
T8 sequence (P31645 whole entry): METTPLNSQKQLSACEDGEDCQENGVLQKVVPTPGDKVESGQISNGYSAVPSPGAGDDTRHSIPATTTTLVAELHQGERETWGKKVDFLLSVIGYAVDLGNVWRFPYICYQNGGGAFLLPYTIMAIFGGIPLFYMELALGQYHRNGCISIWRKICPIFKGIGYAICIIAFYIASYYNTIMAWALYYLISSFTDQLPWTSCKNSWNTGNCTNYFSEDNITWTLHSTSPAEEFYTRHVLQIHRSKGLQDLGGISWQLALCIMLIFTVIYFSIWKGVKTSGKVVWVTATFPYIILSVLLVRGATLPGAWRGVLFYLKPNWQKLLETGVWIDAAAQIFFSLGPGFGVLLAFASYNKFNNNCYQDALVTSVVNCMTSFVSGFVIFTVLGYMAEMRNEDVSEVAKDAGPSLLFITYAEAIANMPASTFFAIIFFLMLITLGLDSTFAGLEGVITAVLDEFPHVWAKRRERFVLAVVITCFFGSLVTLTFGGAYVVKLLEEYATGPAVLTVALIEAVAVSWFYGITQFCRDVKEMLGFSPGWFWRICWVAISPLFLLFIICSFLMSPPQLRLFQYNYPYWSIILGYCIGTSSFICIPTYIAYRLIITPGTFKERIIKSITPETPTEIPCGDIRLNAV
T1 sequence (P22303 32-614): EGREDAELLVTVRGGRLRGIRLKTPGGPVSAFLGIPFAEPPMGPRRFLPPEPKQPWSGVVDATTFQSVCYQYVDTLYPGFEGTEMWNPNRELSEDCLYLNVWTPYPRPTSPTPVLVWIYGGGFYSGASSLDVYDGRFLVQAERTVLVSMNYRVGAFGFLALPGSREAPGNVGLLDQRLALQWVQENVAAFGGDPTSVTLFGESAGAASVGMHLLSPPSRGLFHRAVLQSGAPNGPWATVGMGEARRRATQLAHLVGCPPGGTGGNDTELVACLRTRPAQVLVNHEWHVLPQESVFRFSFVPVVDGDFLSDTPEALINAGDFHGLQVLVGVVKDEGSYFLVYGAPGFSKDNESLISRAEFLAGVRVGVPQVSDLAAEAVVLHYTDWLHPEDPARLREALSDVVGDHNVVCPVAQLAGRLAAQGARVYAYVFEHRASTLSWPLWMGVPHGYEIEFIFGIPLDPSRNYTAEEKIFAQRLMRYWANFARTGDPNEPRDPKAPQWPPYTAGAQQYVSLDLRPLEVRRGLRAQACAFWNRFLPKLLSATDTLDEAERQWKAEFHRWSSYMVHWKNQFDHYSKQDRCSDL
T7 sequence (P06239 whole entry, species assumed): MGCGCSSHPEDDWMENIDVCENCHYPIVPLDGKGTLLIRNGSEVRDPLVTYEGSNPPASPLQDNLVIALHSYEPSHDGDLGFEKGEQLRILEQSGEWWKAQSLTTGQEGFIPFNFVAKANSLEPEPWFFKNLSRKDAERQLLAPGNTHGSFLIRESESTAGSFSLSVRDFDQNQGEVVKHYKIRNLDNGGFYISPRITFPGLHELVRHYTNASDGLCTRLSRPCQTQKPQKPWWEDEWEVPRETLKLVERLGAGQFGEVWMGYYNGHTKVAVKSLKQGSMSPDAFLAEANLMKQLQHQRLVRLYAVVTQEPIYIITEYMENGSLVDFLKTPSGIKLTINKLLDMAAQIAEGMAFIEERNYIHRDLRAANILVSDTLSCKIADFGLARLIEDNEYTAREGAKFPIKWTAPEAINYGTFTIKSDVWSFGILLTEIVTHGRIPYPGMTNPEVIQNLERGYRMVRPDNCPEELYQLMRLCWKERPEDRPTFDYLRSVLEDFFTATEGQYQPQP

Structure (SMILES) | Emax (AChE) [%] | IC50 (AChE) [µM] | Emax (CCKAR; Agonist) [%] | EC50 (CCKAR; Agonist) [µM] | Emax (CCKAR; Antagonist) [%] | IC50 (CCKAR; Antagonist) [µM] | Emax (CNR2; Agonist) [%] | EC50 (CNR2; Agonist) [µM] | Emax (CNR2; Antagonist) [%] | IC50 (CNR2; Antagonist) [µM] | Emax (ADRB1; Agonist) [%] | EC50 (ADRB1; Agonist) [µM] | Emax (ADRB1; Antagonist) [%] | IC50 (ADRB1; Antagonist) [µM] | Emax (HTR1A; Agonist) [%] | EC50 (HTR1A; Agonist) [µM] | Emax (HTR1A; Antagonist) [%] | IC50 (HTR1A; Antagonist) [µM] | Emax (MAOA) [%] | IC50 (MAOA) [µM] | also measured
Cl.Fc1cc(Nc2nc(-c3ccncc3)nc3ncccc23)cc2cc[nH]c12 [BC18813, N-(7-fluoro-1H-indol-5-yl)-2-pyridin-4-ylpyrido[2,3-d]pyrimidin-4-amine hydrochloride] | 6.26 | > 10 | 2.97 | > 10 | 0 | > 10 | 63.6 | 4.59 | 0 | > 10 | 2.22 | > 10 | 42.9 | > 10 | 13 | > 10 | 0 | > 10 | 22.2 | > 10 | Curve Bottom (CNR2; Agonist): 0; Curve Top (CNR2; Agonist): 100; Hill (CNR2; Agonist): 1.05; TFEB ubiquitination (TFEB ubiquitination): decreased; Emax (LCK): 11.2%; IC50 (LCK): > 10 µM; Emax (SERT): 0%; IC50 (SERT): > 10 µM; Emax (AVPR1A; Agonist): 1.07%; EC50 (AVPR1A; Agonist): > 10 µM; Emax (AVPR1A; Antagonist): 16%; IC50 (AVPR1A; Antagonist): > 10 µM; Emax (NMDAR (1A/2B); Blocker): 13.8%; IC50 (NMDAR (1A/2B); Blocker): > 10 µM; Emax (NMDAR (1A/2B); Opener): 0%; EC50 (NMDAR (1A/2B); Opener): > 10 µM; Emax (HTR3A; Blocker): 0%; IC50 (HTR3A; Blocker): > 10 µM; Emax (HTR3A; Opener): 0.03%; EC50 (HTR3A; Opener): > 10 µM
Cl.c1ccc2c(Nc3ccc4[nH]ccc4c3)nc(-c3ccncc3)nc2c1 [BC18630, N-1H-indol-5-yl-2-pyridin-4-ylquinazolin-4-amine hydrochloride] | 21.2 | > 10 | 1.69 | > 10 | 0 | > 10 | 27.8 | > 10 | 0 | > 10 | 0.54 | > 10 | 44.8 | > 10 | 9.36 | > 10 | 5.7 | > 10 | 57 | > 10 | TFEB ubiquitination (TFEB ubiquitination): decreased; Emax (LCK): 49.1%; IC50 (LCK): > 10 µM; Emax (SERT): 0%; IC50 (SERT): > 10 µM; Emax (AVPR1A; Agonist): 8.97%; EC50 (AVPR1A; Agonist): > 10 µM; Emax (AVPR1A; Antagonist): 15.9%; IC50 (AVPR1A; Antagonist): > 10 µM; Emax (NMDAR (1A/2B); Blocker): 0%; IC50 (NMDAR (1A/2B); Blocker): > 10 µM; Emax (NMDAR (1A/2B); Opener): 0%; EC50 (NMDAR (1A/2B); Opener): > 10 µM; Curve Bottom (HTR3A; Blocker): 0; Curve Top (HTR3A; Blocker): 100; Hill (HTR3A; Blocker): 1.9; Emax (HTR3A; Blocker): 69.9%; IC50 (HTR3A; Blocker): 6.43 µM; Emax (HTR3A; Opener): 0%; EC50 (HTR3A; Opener): > 10 µM
